Patent publication US20100216827A1 (Metabolex, Inc., priority 2008, published 2010)
pEC50: −log10 of the molar value. Where two headings read alike, the source gives them in different places.

Experiments:
human GPR120 = biological target: T1, human GPR120 (Homo sapiens, UniProt Q5NUL3); experiment: Intracellular Ca2+ (FLIPR Calcium 4, Flexstation) assay in human GPR120 stable HEK293 cell line coexpressing Gqi5; format: cell-based; settings: for % Activity at 5 μM: 5 μM compound compared to the maximal activity of GW9508 at 6.7 μM (100%); for pEC50: human GPR120 stably expressing cells, 8 concentrations 0.00001 to 20 μM
T1 construct: host or cells: HEK293 cells coexpressing Gqi5
T1 sequence (Q5NUL3 1-361): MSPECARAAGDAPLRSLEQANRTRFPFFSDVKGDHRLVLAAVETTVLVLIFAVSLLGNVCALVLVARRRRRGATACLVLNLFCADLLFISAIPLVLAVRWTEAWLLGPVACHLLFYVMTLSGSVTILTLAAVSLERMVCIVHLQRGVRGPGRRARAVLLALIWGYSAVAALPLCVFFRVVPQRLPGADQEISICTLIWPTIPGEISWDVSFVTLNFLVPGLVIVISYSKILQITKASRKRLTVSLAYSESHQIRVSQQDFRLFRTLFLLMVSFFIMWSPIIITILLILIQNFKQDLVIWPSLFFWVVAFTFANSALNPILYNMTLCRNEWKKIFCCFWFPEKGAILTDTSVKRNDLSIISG
In short: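 Calcium 4 dye-loaded HEK293 cells expressing N-terminally Flag-tagged human GPR120 with Gqi5 (HBSS/20 mM HEPES, pH 7.4; 50 min, 37 °C). Fluorescence (485/525 nm) read for 90 s after addition of compound at 8 concentrations, 0.00001–20 μM; EC50 from Max−Min change. % activity at 5 μM versus maximal GW9508 response (6.7 μM).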

C57BL/6J mice [1] = experiment: Intra-peritoneal glucose tolerance test (IPGTT); format: in vivo; settings: 100 mg/kg oral gavage, overnight fasted male C57BL/6J mice, 2 g/kg glucose i.p., vs vehicle
Experimental: 8-10 week old male C57BL/6J mice (Harlan) were maintained on regular chow diet from Harlan (2018 Teklad Global). For the oral glucose tolerance test (OGTT), on the day of the experiment mice were fasted for 6 hours, then randomized into groups (n=10-15) to receive the tested GPR120 agonist at doses ranging from 30 mg/kg to 100 mg/kg or the vehicle (1% CMC, 2% TWEEN 80). For the intra-peritoneal glucose tolerance test (IPGTT), the mice were fasted for overnight, then randomized into groups (n=10-15) to receive the tested GPR120 agonist at doses ranging from 30 mg/kg to 100 mg/kg or the vehicle (1% CMC, 2% TWEEN 80). Compounds were delivered orally via gavage at 10 mL/kg. Blood glucose levels were measured by glucometer (Ascensia Elite XL, Bayer) at time −30 minutes before administration of compound. Blood glucose was measured again after 30 minutes (at time 0), and then the mice were dosed orally with 3 g/kg glucose at 10 mL/kg or were dosed intraperitoneally with 2 g/kg glucose at 10 mL/kg. […]
Glucose levels were plotted against time, and the incremental area under the curve (AUC) of the glucose excursion was determined from time 0 using Graphpad Prism 5.01. Outliers were excluded using Tukey's box plot outlier test, and statistical significance of differences in AUC of compound treatment compared to vehicle was determined by non-parametric Kruskal-Wallis test with Dunn's post test. […]

C57BL/6J mice [2] = experiment: Oral glucose tolerance test (OGTT); format: in vivo; settings: 6 h fasted male C57BL/6J mice, 3 g/kg oral glucose, vs vehicle
Experimental: 8-10 week old male C57BL/6J mice (Harlan) were maintained on regular chow diet from Harlan (2018 Teklad Global). For the oral glucose tolerance test (OGTT), on the day of the experiment mice were fasted for 6 hours, then randomized into groups (n=10-15) to receive the tested GPR120 agonist at doses ranging from 30 mg/kg to 100 mg/kg or the vehicle (1% CMC, 2% TWEEN 80). For the intra-peritoneal glucose tolerance test (IPGTT), the mice were fasted for overnight, then randomized into groups (n=10-15) to receive the tested GPR120 agonist at doses ranging from 30 mg/kg to 100 mg/kg or the vehicle (1% CMC, 2% TWEEN 80). Compounds were delivered orally via gavage at 10 mL/kg. Blood glucose levels were measured by glucometer (Ascensia Elite XL, Bayer) at time −30 minutes before administration of compound. Blood glucose was measured again after 30 minutes (at time 0), and then the mice were dosed orally with 3 g/kg glucose at 10 mL/kg or were dosed intraperitoneally with 2 g/kg glucose at 10 mL/kg. Blood glucose measurements were taken 20, 40, 60, 90 and 120 minutes after glucose administration, by glucometer (Ascensia Elite XL, Bayer).
Glucose levels were plotted against time, and the incremental area under the curve (AUC) of the glucose excursion was determined from time 0 using Graphpad Prism 5.01. Outliers were excluded using Tukey's box plot outlier test, and statistical significance of differences in AUC of compound treatment compared to vehicle was determined by non-parametric Kruskal-Wallis test with Dunn's post test.
The compounds were tested at 100 mg/kg and the levels of blood glucose were determined in the presence and absence of the tested compounds. The percentage of glucose or intra-peritoneal reduction is reported as a percent reduction in AUC (area under the curve). The tested compound was selected as examples from the exemplified compounds.

[3] = read-out: EC50 between >1 μM and ≦10 μM

| Structure (SMILES) | % Activity at 5 μM (human GPR120) | pEC50 (human GPR120; read-out: EC50 ≦ 1 μM) | pEC50 (human GPR120; [3]) | % reduction in IPGTT AUC (C57BL/6J mice [1]) | % reduction in OGTT AUC (C57BL/6J mice [2]; 30 mg/kg oral gavage) | % reduction in OGTT AUC (C57BL/6J mice [2]; 100 mg/kg oral gavage) |
| --- | --- | --- | --- | --- | --- | --- |
| Cc1cc(COc2c(F)cc(CC(C)C(=O)O)cc2F)n(-c2ccc(Cl)cc2)n1 (stereo not shown) [Example 36, 3-(4-((1-(4-chlorophenyl)-3-methyl-1H-pyrazol-5-yl)methoxy)-3,5-difluorophenyl)-2-methylpropanoic acid] | 96% | ≥ 6.00 |  | 24% | 15% | 45.2% |
| Cc1cc(COc2c(F)cc(C[C@@H](C)C(=O)O)cc2F)n(-c2ccc(Cl)cc2)n1 [Example 43, (R)-3-(4-((1-(4-chlorophenyl)-3-methyl-1H-pyrazol-5-yl)methoxy)-3,5-difluorophenyl)-2-methylpropanoic acid] |  |  |  |  | 20% | 40% |
| Cc1cc(COc2c(F)cc(C[C@H](C)C(=O)O)cc2F)n(-c2ccc(Cl)cc2)n1 [Example 44, (S)-3-(4-((1-(4-chlorophenyl)-3-methyl-1H-pyrazol-5-yl)methoxy)-3,5-difluorophenyl)-2-methylpropanoic acid] |  |  |  |  | 33% | 39% |
| Cc1onc(-c2ccccc2)c1COc1c(F)cc(CC(C)C(=O)O)cc1F (stereo not shown) [Example 37, 3-(3,5-difluoro-4-((5-methyl-3-phenylisoxazol-4-yl)methoxy)phenyl)-2-methylpropanoic acid] | 94% | ≥ 6.00 |  |  |  |  |
| CC(C)c1cc(COc2c(F)cc(CCC(=O)O)cc2F)n(-c2ccccc2)n1 [Example 1, 3-(3,5-difluoro-4-((3-isopropyl-1-phenyl-1H-pyrazol-5-yl)methoxy)phenyl)propanoic acid] | 79% | ≥ 6.00 |  |  |  |  |
| Cc1nc(-c2ccccc2)c(COc2c(F)cc(CCC(=O)O)cc2F)s1 [Example 30] | 80% |  | 5.00 to 6.00 |  |  |  |
| Cc1cc(COc2c(F)cc(CCC(=O)O)cc2F)n(C(C)(C)C)n1 [Example 41, 3-(4-((1-tert-butyl-3-methyl-1H-pyrazol-5-yl)methoxy)-3,5-difluorophenyl)propanoic acid] | 50% | ≥ 6.00 |  |  |  |  |
| CO/N=C(/CCC(=O)O)c1ccc(OCc2snnc2-c2ccc(Cl)cc2)cc1 [Example 68, (Z)-4-(4-((4-(4-chlorophenyl)-1,2,3-thiadiazol-5-yl)methoxy)phenyl)-4-(methoxyimino)butanoic acid] | 54% |  | 5.00 to 6.00 |  |  |  |
| O=C(O)CCc1cc(F)c(OCc2snnc2-c2ccccc2)c(F)c1 [Example 2] | 77% | ≥ 6.00 |  |  |  |  |
| Cc1cc(COc2c(F)cc(CC3CC3C(=O)O)cc2F)n(-c2ccc(Cl)cc2)n1 (stereo not shown) [Example 55, 2-(4-((1-(4-chlorophenyl)-3-methyl-1H-pyrazol-5-yl)methoxy)-3,5-difluorobenzyl)cyclopropanecarboxylic acid] | 66% | ≥ 6.00 |  |  |  |  |

Second part, led by results:

| % Activity at 5 μM (human GPR120) | pEC50 (human GPR120; read-out: EC50 ≦ 1 μM) | pEC50 (human GPR120; [3]) | Structure (SMILES) | % reduction in IPGTT AUC (C57BL/6J mice [1]) | % reduction in OGTT AUC (C57BL/6J mice [2]; 30 mg/kg oral gavage) | % reduction in OGTT AUC (C57BL/6J mice [2]; 100 mg/kg oral gavage) |
| --- | --- | --- | --- | --- | --- | --- |
| 106% | ≥ 6.00 |  | Cc1cc(COc2ccc(CC(C)C(=O)O)cc2F)n(-c2ccc(Cl)cc2)n1 (stereo not shown) [Example 108, 3-(4-((1-(4-Chlorophenyl)-3-methyl-1H-pyrazol-5-yl)methoxy)-3-fluorophenyl)-2-methylpropanoic acid] |  |  |  |
| 112% | ≥ 6.00 |  | Cc1cc(COc2ccc(CCCC(=O)O)cc2)n(-c2ccc(Cl)cc2)n1 [Example 127, 4-(4-((1-(4-chlorophenyl)-3-methyl-1H-pyrazol-5-yl)methoxy)phenyl)butanoic acid] |  |  |  |
| 92% | ≥ 6.00 |  | Cc1cc(COc2c(F)cc(CC(C)C(=O)O)cc2F)n(-c2ccc(C#N)cc2)n1 (stereo not shown) [Example 80, 3-(4-((1-(4-cyanophenyl)-3-methyl-1H-pyrazol-5-yl)methoxy)-3,5-difluorophenyl)-2-methylpropanoic acid] |  |  |  |
| 83% |  | 5.00 to 6.00 | COc1cc(CC(C)C(=O)O)ccc1OCc1cc(C)nn1-c1ccc(Cl)cc1 (stereo not shown) [Example 112, 3-(4-((1-(4-Chlorophenyl)-3-methyl-1H-pyrazol-5-yl)methoxy)-3-methoxyphenyl)-2-methylpropanoic acid] |  |  |  |
| 108% | ≥ 6.00 |  | Cc1cc(COc2c(F)cc(CC(C)C(=O)O)cc2F)n(-c2ccc(Cl)c(C)c2)n1 (stereo not shown) [Example 94, 3-(4-((1-(4-chloro-3-methylphenyl)-3-methyl-1H-pyrazol-5-yl)methoxy)-3,5-difluorophenyl)-2-methylpropanoic acid] |  |  |  |
| 118% | ≥ 6.00 |  | CC(Cc1cc(F)c(OCc2c(C(F)(F)F)nn(C)c2Oc2ccc(Cl)cc2)c(F)c1)C(=O)O (stereo not shown) [Example 115, 3-(4-((5-(4-Chlorophenoxy)-1-methyl-3-(trifluoromethyl)-1H-pyrazol-4-yl)methoxy)-3,5-difluorophenyl)-2-methylpropanoic Acid] |  |  |  |
| 78% |  | 5.00 to 6.00 | COc1cc(OCc2cc(C)nn2-c2ccc(Cl)cc2)ccc1CC(C)C(=O)O (stereo not shown) [Example 103, 3-(4-((1-(4-Chlorophenyl)-3-methyl-1H-pyrazol-5-yl)methoxy)-2-methoxyphenyl)-2-methylpropanoic acid] |  |  |  |
